The results in this text go back to patent US9090584B2, “Therapeutic agents for treatment of ocular hypertension” (Allergan, Inc., priority 2010, dated 2015).

Data set [1] relates to laser-induced hypertensive monkeys. Particulars: 0.05%, one single day dose, maximum at 6 h. On the procedure: (§1) U.S. Pat. No. 7,091,231 describes the methods used for these in vivo tests.
(§2) Isopropyl 5-(2-(3′,4-difluoro-[1,1′-biphenyl]-3-ylcarboxamido)ethyl)thiophene-2-carboxylate was tested in normotensive dogs at 0.05%, dosing once daily for 5 days. […] This compound was also tested in laser-induced hypertensive monkeys, using one single day dose.
(§3) 2-Hydroxyethyl 5-(2-(3′,4-difluoro-[1,1′-biphenyl]-3-ylcarboxamido)ethyl)thiophene-2-carboxylate was tested in normotensive dogs at 0.05%, dosing once daily for 5 days. […] This compound was also tested in laser-induced hypertensive monkeys, using one single day dose.

The next data set concerns normotensive dogs. Particulars: 0.05%, once daily for 5 days. On the procedure: as §1, §2, §3
Data set [2] deals with T1, EP2 (Homo sapiens, UniProt P43116). In words: EP2 flipr functional assay. It is filed as cell-based. As to the method: (§4) Data from running binding and activity studies on the compounds of the invention were carried out as described in U.S. Pat. No. 7,427,685, the contents of which are incorporated herein by reference.
T1 sequence (P43116 whole entry): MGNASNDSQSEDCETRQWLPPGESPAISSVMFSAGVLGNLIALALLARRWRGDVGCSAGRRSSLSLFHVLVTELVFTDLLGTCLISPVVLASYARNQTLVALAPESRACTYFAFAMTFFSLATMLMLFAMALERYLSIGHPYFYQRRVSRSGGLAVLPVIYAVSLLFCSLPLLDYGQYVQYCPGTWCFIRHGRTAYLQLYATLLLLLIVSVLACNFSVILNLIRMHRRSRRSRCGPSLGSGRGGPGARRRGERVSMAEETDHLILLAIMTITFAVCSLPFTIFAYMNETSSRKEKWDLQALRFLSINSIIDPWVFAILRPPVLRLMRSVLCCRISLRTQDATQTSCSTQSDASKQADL
In data set [3] the target is T1, EP2. In words: EP2 cAMP assay. In kind it is cell-based. As to the method:
as §4
In general terms: Changes in cAMP serve as a functional read-out for many G protein-coupled receptors.

The target in data set [4] is T1, EP2. The data set is described as follows: EP2 binding. On the procedure: as §4
The target in data set [5] is T2, EP4 (Homo sapiens, UniProt P35408). The data set is described as follows: EP4 flipr functional assay. In kind it is cell-based. On the procedure:
as §4

Data set [6] addresses T2, EP4. In words: EP4 binding. On the procedure: as §4
For another data set, the target named is T3, hEP3A (Homo sapiens, UniProt P43115).
T3 sequence (P43115 1-390): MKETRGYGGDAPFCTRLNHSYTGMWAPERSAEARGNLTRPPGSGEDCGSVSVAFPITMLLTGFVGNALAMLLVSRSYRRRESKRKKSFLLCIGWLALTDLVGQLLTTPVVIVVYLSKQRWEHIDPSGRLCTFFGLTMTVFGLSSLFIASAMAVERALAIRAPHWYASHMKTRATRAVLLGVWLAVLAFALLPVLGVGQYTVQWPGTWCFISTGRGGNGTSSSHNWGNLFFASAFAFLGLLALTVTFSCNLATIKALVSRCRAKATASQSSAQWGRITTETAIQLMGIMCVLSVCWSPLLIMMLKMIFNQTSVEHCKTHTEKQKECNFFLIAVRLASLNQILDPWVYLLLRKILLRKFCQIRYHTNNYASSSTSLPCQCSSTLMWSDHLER
The data set is described as follows: Other receptors functional assay, hEP3A. It is filed as cell-based. On the procedure:
as §4

In general, EC50 refers to the concentration needed to bring the measured effect to its halfway point. Lower therefore signals an effect from little substance. By Ki is commonly meant a dissociation constant, usually derived from enzyme kinetics or from competition with a known ligand. A low value points to higher affinity.

Like-named read-outs stand apart in the source and are kept apart here.

T2 sequence (P35408 whole entry): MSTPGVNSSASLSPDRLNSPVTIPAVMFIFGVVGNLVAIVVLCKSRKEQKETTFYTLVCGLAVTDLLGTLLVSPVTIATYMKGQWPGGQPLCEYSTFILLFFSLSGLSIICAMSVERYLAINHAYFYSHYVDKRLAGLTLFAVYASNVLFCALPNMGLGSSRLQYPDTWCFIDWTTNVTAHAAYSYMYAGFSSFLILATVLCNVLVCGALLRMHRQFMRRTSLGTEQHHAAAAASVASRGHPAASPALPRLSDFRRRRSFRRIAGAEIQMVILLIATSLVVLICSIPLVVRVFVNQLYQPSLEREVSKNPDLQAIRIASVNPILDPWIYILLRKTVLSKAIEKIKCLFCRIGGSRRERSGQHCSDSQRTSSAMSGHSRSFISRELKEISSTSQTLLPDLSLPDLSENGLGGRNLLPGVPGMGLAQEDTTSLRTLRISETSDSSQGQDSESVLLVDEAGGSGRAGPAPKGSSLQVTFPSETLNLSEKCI

Regarding `O=C(OCCO)c1ccc(CCNC(=O)c2cc(-c3cccc(F)c3)ccc2F)s1` [2-Hydroxyethyl 5-(2-(3′,4-difluoro-[1,1′-biphenyl]-3-ylcarboxamido)ethyl)thiophene-2-carboxylate], in data set [1], the “maximum IOP decrease from baseline” value was found to be 13.1 mmHg and the “maximum IOP decrease from baseline (percent)” value was found to be 31%. Also, in the data set with normotensive dogs (maximum at 52 h), the “maximum intraocular pressure (IOP) decrease from baseline” value was found to be 6.6 mmHg and the “maximum intraocular pressure (IOP) decrease from baseline (percent)” value turned out to be 50%. The “maximum ocular surface hyperemia (OSH) score” value in the data set on normotensive dogs (maximum at 54 h) is on record as 1.6.
For the compound `O=C(O)c1ccc(CCNC(=O)c2cc(-c3cccc(F)c3)ccc2F)s1` [Compound 1, 5-(2-(3′,4-Difluoro-[1,1′-biphenyl]-3-ylcarboxamido)ethyl)thiophene-2-carboxylic acid], the EC50 was determined as 49 nM at EP2 [2], 2 nM at EP2 [3], 5140 nM on EP4 [5] and 8900 nM at hEP3A. The values for the Ki at EP2 [4] and on EP4 [6] were 63 nM and 648 nM, respectively.
With `O=C(O)c1ccc(CNC(=O)c2cc(-c3cccc(F)c3)ccc2F)s1` [Compound 2, 5-((3′,4-Difluoro-[1,1′-biphenyl]-3-ylcarboxamido)methyl)thiophene-2-carboxylic acid], the EC50 at EP2 [2], on EP2 [3] and at EP4 [5] was over 10000 nM throughout. Further, the results for the inhibition constant (Ki) on EP2 [4] and on EP4 [6] were 631 nM and 845 nM, respectively.
Consider `O=C(O)c1ccc(CCCNC(=O)c2cc(-c3cccc(F)c3)ccc2F)s1` [Compound 3, 5-(3-(3′,4-Difluoro-[1,1′-biphenyl]-3-ylcarboxamido)propyl)thiophene-2-carboxylic acid], for which the EC50 is 31 nM at EP2 [2], 5 nM at EP2 [3], over 10000 nM on EP4 [5] and 3290 nM at hEP3A. The inhibition constant (Ki) is 177 nM at EP2 [4] and 1480 nM at EP4 [6].
Turning to `O=C(O)c1ccc(CCCCNC(=O)c2cc(-c3cccc(F)c3)ccc2F)s1` [Compound 4, 5-(4-(3′,4-Difluoro-[1,1′-biphenyl]-3-ylcarboxamido)butyl)thiophene-2-carboxylic acid], the EC50 at EP2 [2], at EP2 [3] and on EP4 [5] was over 10000 nM in each case. For the same compound, the inhibition constant Ki at EP2 [4] is 6880 nM; on EP4 [6], 8640 nM.
With `O=C(NCCc1ccc(C(=O)O)s1)c1cccc(-c2cccc(F)c2)c1` [Compound 5, 5-(2-(3′-Fluoro-[1,1′-biphenyl]-3-ylcarboxamido)ethyl)thiophene-2-carboxylic acid], the EC50 at EP2 [2] is 26 nM; on EP2 [3] it was 8 nM; at EP4 [5], 6020 nM; at hEP3A it was over 10000 nM. In addition, the results for the Ki on EP2 [4] and on EP4 [6] were 150 nM and 739 nM, respectively.
In the case of `O=C(NCCc1ccc(C(=O)O)s1)c1cc(F)cc(-c2cccc(F)c2)c1` [Compound 6, 5-(2-(3′,5-Difluoro-[1,1′-biphenyl]-3-ylcarboxamido)ethyl)thiophene-2-carboxylic acid], the concentration for a half-maximal effect (EC50) at EP2 [2] was 11 nM; at EP2 [3], 4 nM; at EP4 [5], 4440 nM; on hEP3A, 4810 nM. Moreover, the inhibitory constant (Ki) worked out at 122 nM at EP2 [4] and 750 nM at EP4 [6].
With `O=C(NCCCc1ccc(C(=O)O)s1)c1cc(F)cc(-c2cccc(F)c2)c1` [Compound 7, 5-(3-(3′,5-Difluoro-[1,1′-biphenyl]-3-ylcarboxamido)propyl)thiophene-2-carboxylic acid], the EC50 is 37 nM on EP2 [2], 5 nM on EP2 [3], over 10000 nM at EP4 [5] and 1420 nM at hEP3A. The Ki worked out at 126 nM at EP2 [4] and 814 nM at EP4 [6].
For `CC(C)OC(=O)c1ccc(CCNC(=O)c2cc(-c3cccc(F)c3)ccc2F)s1` [Isopropyl 5-(2-(3′,4-difluoro-[1,1′-biphenyl]-3-ylcarboxamido)ethyl)thiophene-2-carboxylate], in data set [1], the “maximum IOP decrease from baseline” value stood at 6.9 mmHg and the “maximum IOP decrease from baseline (percent)” value was found to be 19%. The “maximum ocular surface hyperemia (OSH) score” value with normotensive dogs (maximum at 28 h) came out at 0.8. In the data set with normotensive dogs (maximum at 78 h), the “maximum intraocular pressure (IOP) decrease from baseline” value is 5.2 mmHg and the “maximum intraocular pressure (IOP) decrease from baseline (percent)” value was 32%.
